ChEMBL document CHEMBL1926642, “Relevance of the C-5 position to schweinfurthin induced cytotoxicity” (2011)

What was measured:
Assay type in all cases: functional
U-251 = experiment: Growth inhibition of human U251 cells after 48 hrs by sulforhodamine B assay; details: U-251, 48 h; for TGI: read-out: pTGI (converted)
HT-29 = experiment: Growth inhibition of human HT-29 cells after 48 hrs by sulforhodamine B assay; details: HT-29, 48 h; for TGI: read-out: pTGI (converted)
RXF 393 = experiment: Growth inhibition of human RXF393 cells after 48 hrs by sulforhodamine B assay; details: RXF 393, 48 h; for TGI: read-out: pTGI (converted)
CCRF-CEM = experiment: Growth inhibition of human CCRF-CEM cells after 48 hrs by sulforhodamine B assay; details: for TGI: read-out: pTGI (converted)
MOLT-4 = experiment: Growth inhibition of human MOLT4 cells after 48 hrs by sulforhodamine B assay; details: MOLT-4, 48 h; for TGI: read-out: pTGI (converted)
MDA-MB-435 = experiment: Growth inhibition of human MDA-MB-435 cells after 48 hrs by sulforhodamine B assay; details: MDA-MB-435, 48 h; for TGI: read-out: pTGI (converted)
A498 = experiment: Growth inhibition of human A498 cells after 48 hrs by sulforhodamine B assay; details: A498, 48 h; for TGI: read-out: pTGI (converted)
HOP-92 = experiment: Growth inhibition of human HOP92 cells after 48 hrs by sulforhodamine B assay; details: HOP-92, 48 h; for TGI: read-out: pTGI (converted)
NCI-H23 = experiment: Growth inhibition of human NCI-H23 cells after 48 hrs by sulforhodamine B assay; details: NCI-H23, 48 h; for TGI: read-out: pTGI (converted)
SF-539 = experiment: Growth inhibition of human SF539 cells after 48 hrs by sulforhodamine B assay; details: SF-539, 48 h; for TGI: read-out: pTGI (converted)
HOP-62 = experiment: Growth inhibition of human HOP62 cells after 48 hrs by sulforhodamine B assay; details: HOP-62, 48 h; for TGI: read-out: pTGI (converted)
MDA-MB-468 = experiment: Growth inhibition of human MDA-MB-468 cells after 48 hrs by sulforhodamine B assay; details: MDA-MB-468, 48 h; for TGI: read-out: pTGI (converted)
A549 = experiment: Growth inhibition of human A549 cells after 48 hrs by sulforhodamine B assay; details: A549, 48 h; for TGI: read-out: pTGI (converted)
ACHN = experiment: Growth inhibition of human ACHN cells after 48 hrs by sulforhodamine B assay; details: for TGI: read-out: pTGI (converted)
MCF7 = experiment: Growth inhibition of human MCF7 cells after 48 hrs by sulforhodamine B assay; details: MCF7, 48 h; for TGI: read-out: pTGI (converted)
MDA-MB-231 = experiment: Growth inhibition of human MDA-MB-231/ATCC cells after 48 hrs by sulforhodamine B assay; details: MDA-MB-231, 48 h; for CC50: read-out: pLC50 (the source's name) (converted); for TGI: read-out: pTGI (converted)
PC-3 = experiment: Growth inhibition of human PC3 cells after 48 hrs by sulforhodamine B assay; details: PC-3, 48 h; for CC50: read-out: pLC50 (the source's name) (converted); for TGI: read-out: pTGI (converted)
TK-10 = experiment: Growth inhibition of human TK10 cells after 48 hrs by sulforhodamine B assay; details: TK-10, 48 h; for TGI: read-out: pTGI (converted)
BT-549 = experiment: Growth inhibition of human BT549 cells after 48 hrs by sulforhodamine B assay; details: BT-549, 48 h; for TGI: read-out: pTGI (converted)
UO-31 = experiment: Growth inhibition of human UO31 cells after 48 hrs by sulforhodamine B assay; details: UO-31, 48 h; for TGI: read-out: pTGI (converted)
OVCAR-8 = experiment: Growth inhibition of human OVCAR8 cells after 48 hrs by sulforhodamine B assay; details: OVCAR-8, 48 h; for TGI: read-out: pTGI (converted)
OVCAR-5 = experiment: Growth inhibition of human OVCAR5 cells after 48 hrs by sulforhodamine B assay; details: OVCAR-5, 48 h; for TGI: read-out: pTGI (converted)
Malme-3M = experiment: Growth inhibition of human MALME-3M cells after 48 hrs by sulforhodamine B assay; details: for TGI: read-out: pTGI (converted)
HCT-116 = experiment: Growth inhibition of human HCT116 cells after 48 hrs by sulforhodamine B assay; details: HCT-116, 48 h; for TGI: read-out: pTGI (converted)
SW-620 = experiment: Growth inhibition of human SW620 cells after 48 hrs by sulforhodamine B assay; details: SW-620, 48 h; for TGI: read-out: pTGI (converted)
[1] = Growth inhibition of human Hs 578T cells after 48 hrs by sulforhodamine B assay; details: for CC50: read-out: pLC50 (the source's name) (converted); for TGI: read-out: pTGI (converted)

For `COc1cc(/C=C/c2cc(F)c3c(c2)C[C@@H]2C(C)(C)[C@H](O)CC[C@@]2(C)O3)cc(O)c1C/C=C(\C)CCC=C(C)C`, the GI50 (U-251) was 2.04 µM, the LC50 (U-251) was 15.8 µM and the TGI (U-251) was 5.01 µM. For the same molecule, the GI50 (HT-29) was 2.57 µM, the LC50 (concentration killing 50% of cells) (HT-29) was 41.7 µM and the TGI (HT-29) was 11 µM. It also gave a GI50 (RXF 393) of 1.82 µM, an LC50 (50% lethal concentration) (RXF 393) of 10 µM and a TGI (RXF 393) of 4.27 µM. For the same molecule, the GI50 (CCRF-CEM) was 1.86 µM, the LC50 (CCRF-CEM) was > 100 µM and the TGI (CCRF-CEM) was 4.37 µM. For the same molecule, the GI50 (MOLT-4) was 2.04 µM, the LC50 (MOLT-4) was > 100 µM and the TGI (MOLT-4) was 6.46 µM. It also gave a GI50 (MDA-MB-435) of 13.2 µM, an LC50 (MDA-MB-435) of 63.1 µM and a TGI (MDA-MB-435) of 28.8 µM. For the same molecule, the GI50 (A498) was 28.8 µM, the LC50 (A498) was > 100 µM and the TGI (A498) was > 100 µM. The GI50 (HOP-92) was 3.39 µM, the LC50 (HOP-92) was 57.5 µM and the TGI (HOP-92) was 12.6 µM. The GI50 (NCI-H23) was 2.09 µM, the LC50 (NCI-H23) was 20.9 µM and the TGI (NCI-H23) was 5.25 µM. For the same molecule, the GI50 (SF-539) was 3.89 µM, the LC50 (SF-539) was 43.7 µM and the TGI (SF-539) was 14.1 µM. For the same molecule, the GI50 (HOP-62) was 7.41 µM, the LC50 (HOP-62) was 44.7 µM and the TGI (HOP-62) was 20 µM. For the same molecule, the GI50 (MDA-MB-468) was 6.61 µM, the LC50 (MDA-MB-468) was 45.7 µM and the TGI (MDA-MB-468) was 20 µM. It also gave an LC50 (A549) of 15.8 µM, a GI50 (A549; read-out: GI50) of 2.14 µM and a GI50 (A549; read-out: pGI50 (converted)) of 2.14 µM. The TGI (A549) was 4.9 µM, the GI50 (ACHN) was 11.7 µM and the LC50 (ACHN) was 58.9 µM. For the same molecule, the TGI (ACHN) was 26.3 µM, the GI50 (MCF7) was 13.8 µM and the LC50 (MCF7) was 64.6 µM. The TGI (MCF7) was 30.2 µM, the GI50 (MDA-MB-231) was 6.61 µM and the CC50 (MDA-MB-231) was 97.7 µM. For the same molecule, the TGI (MDA-MB-231) was 26.9 µM, the GI50 (PC-3) was 5.13 µM and the CC50 (PC-3) was > 100 µM. For the same molecule, the TGI (PC-3) was 25.1 µM, the GI50 (TK-10) was 15.8 µM and the LC50 (TK-10) was 67.6 µM. The TGI (TK-10) was 32.4 µM, the GI50 (BT-549) was 9.12 µM and the LC50 (BT-549) was > 100 µM. For the same molecule, the TGI (BT-549) was 37.2 µM, the GI50 (UO-31) was 2.51 µM and the LC50 (UO-31) was 27.5 µM. The TGI (UO-31) was 6.46 µM, the GI50 (OVCAR-8) was 4.37 µM and the LC50 (OVCAR-8) was 50.1 µM. The TGI (OVCAR-8) was 16.2 µM, the GI50 (OVCAR-5) was 19.1 µM and the LC50 (OVCAR-5) was > 100 µM. It also gave a TGI (OVCAR-5) of 70.8 µM, a GI50 (Malme-3M) of 14.8 µM and an LC50 (Malme-3M) of 89.1 µM. For the same molecule, the TGI (Malme-3M) was 36.3 µM, the GI50 (HCT-116) was 2.45 µM and the LC50 (HCT-116) was 20.4 µM. The TGI (HCT-116) was 6.03 µM, the GI50 (SW-620) was 3.02 µM and the LC50 (SW-620) was 33.1 µM. The TGI (SW-620) was 9.12 µM, the GI50 [1] was 8.71 µM and the CC50 [1] was > 100 µM. The TGI [1] was > 100 µM.
For `COc1cc(/C=C/c2ccc3c(c2)C[C@@H]2C(C)(C)[C@H](O)CC[C@@]2(C)O3)cc(O)c1C/C=C(\C)CCC=C(C)C`, the GI50 (U-251) was 5.62 µM, the LC50 (U-251) was 63.1 µM and the TGI (U-251) was 22.4 µM. For the same molecule, the GI50 (HT-29) was 1.95 µM, the LC50 (concentration killing 50% of cells) (HT-29) was 23.4 µM and the TGI (HT-29) was 5.01 µM. The GI50 (RXF 393) was 1.29 µM, the LC50 (50% lethal concentration) (RXF 393) was 6.61 µM and the TGI (RXF 393) was 2.88 µM. The GI50 (CCRF-CEM) was 8.32 µM, the LC50 (CCRF-CEM) was > 100 µM and the TGI (CCRF-CEM) was > 100 µM. The GI50 (MOLT-4) was 5.01 µM, the LC50 (MOLT-4) was > 100 µM and the TGI (MOLT-4) was 38.9 µM. It also gave a GI50 (MDA-MB-435) of 17.4 µM, an LC50 (MDA-MB-435) of 81.3 µM and a TGI (MDA-MB-435) of 38 µM. The GI50 (A498) was 46.8 µM, the LC50 (A498) was > 100 µM and the TGI (A498) was > 100 µM. For the same molecule, the GI50 (HOP-92) was 17.8 µM, the LC50 (HOP-92) was > 100 µM and the TGI (HOP-92) was 49 µM. For the same molecule, the GI50 (NCI-H23) was 15.1 µM, the LC50 (NCI-H23) was 60.3 µM and the TGI (NCI-H23) was 30.2 µM. It also gave a GI50 (SF-539) of 4.17 µM, an LC50 (SF-539) of 57.5 µM and a TGI (SF-539) of 17.4 µM. For the same molecule, the GI50 (HOP-62) was 6.17 µM, the LC50 (HOP-62) was 52.5 µM and the TGI (HOP-62) was 20 µM. It also gave a GI50 (MDA-MB-468) of 11 µM, an LC50 (MDA-MB-468) of 72.4 µM and a TGI (MDA-MB-468) of 28.2 µM. For the same molecule, the LC50 (A549) was > 100 µM, the GI50 (A549; read-out: GI50) was 13.2 µM and the GI50 (A549; read-out: pGI50 (converted)) was 13.2 µM. For the same molecule, the TGI (A549) was 39.8 µM, the GI50 (ACHN) was 20 µM and the LC50 (ACHN) was > 100 µM. The TGI (ACHN) was 46.8 µM, the GI50 (MCF7) was 16.6 µM and the LC50 (MCF7) was 79.4 µM. It also gave a TGI (MCF7) of 36.3 µM, a GI50 (MDA-MB-231) of 10 µM and a CC50 (MDA-MB-231) of 95.5 µM. For the same molecule, the TGI (MDA-MB-231) was 30.9 µM, the GI50 (PC-3) was 8.51 µM and the CC50 (PC-3) was > 100 µM. For the same molecule, the TGI (PC-3) was 56.2 µM, the GI50 (TK-10) was 29.5 µM and the LC50 (TK-10) was > 100 µM. The TGI (TK-10) was 79.4 µM, the GI50 (BT-549) was 5.01 µM and the LC50 (BT-549) was 49 µM. The TGI (BT-549) was 17.8 µM, the GI50 (UO-31) was 5.01 µM and the LC50 (UO-31) was 64.6 µM. For the same molecule, the TGI (UO-31) was 20 µM, the GI50 (OVCAR-8) was 25.1 µM and the LC50 (OVCAR-8) was > 100 µM. For the same molecule, the TGI (OVCAR-8) was 74.1 µM, the GI50 (OVCAR-5) was 27.5 µM and the LC50 (OVCAR-5) was > 100 µM. For the same molecule, the TGI (OVCAR-5) was 79.4 µM, the GI50 (Malme-3M) was 17.8 µM and the LC50 (Malme-3M) was 91.2 µM. It also gave a TGI (Malme-3M) of 40.7 µM, a GI50 (HCT-116) of 7.76 µM and an LC50 (HCT-116) of 45.7 µM. For the same molecule, the TGI (HCT-116) was 20.4 µM, the GI50 (SW-620) was 11.7 µM and the LC50 (SW-620) was 53.7 µM. The TGI (SW-620) was 25.1 µM, the GI50 [1] was 8.71 µM and the CC50 [1] was > 100 µM. It also gave a TGI [1] of 93.3 µM.
